Values of other authors, collected in patent US20030069214A1, “Process for preparing saponin compounds” (priority 2001, published 2003).

What was measured:
[1] = system: broad spectrum of malignant tumor cells; conditions: Bioorg. Med. Chem. Lett., 7, 633, 1997
normal cells = normal cells in vitro; Bioorg. Med. Chem. Lett., 7, 633, 1997

Question: For `COc1ccc(C(=O)O[C@H]2[C@H](O[C@@H]3[C@@H](OC(C)=O)[C@H](O[C@H]4C[C@H]5[C@@H]6CC=C7C[C@@H](O)CC[C@]7(C)[C@H]6CC[C@]5(C)[C@@]4(O)[C@H](C)C(=O)CCC(C)C)OC[C@@H]3O)OC[C@@H](O)[C@@H]2O)cc1` [OSW-1], which “toxicity against malignant tumor cells” value [1] is on record?
Answer: The value was “highly toxic”.

Question: What about the “toxicity to normal cells” value (normal cells) of the same molecule?
Answer: The value was “little toxicity”.
